± gives the expanded uncertainty stated by the source.
Assays:
[1] = 298.15 K; 101.33 kPa; Liquid; Vibrating tube method
[2] = refractive index (Na D-line) (dimensionless); details: 298.15 K; 101.33 kPa; Liquid; Standard Abbe refractometry

SMILES | mass density [1] [kg/m3] | refractive index [2]
Cc1ccccc1C [1,2-dimethylbenzene] | 859.54 ± 0.14 | 1.4945 ± 0.0008
Cc1cccc(C)c1 [1,3-dimethylbenzene] | 859.95 ± 0.14 | 1.4946 ± 0.0008
Cc1ccc(C)cc1 [1,4-dimethylbenzene] | 856.71 ± 0.14 | 1.4957 ± 0.0008
CCCCCCCCCC [decane] | 726.36 ± 0.17 | 1.4108 ± 0.0008
